Measured values taken from paper PMC6071250 (2018).

Legend:
[1] = system: anti-AFT B1 aptamer (DNA, aptamer) GTTGGGCACGTGTTGTCTCTCTGTGTCTCGTGCCCTTCGCTAGGCCCACA; test: TIRE/LSPR spectral shift; conditions: 3 mM MgCl2, Na+ and K+ (HBB: 120 mM NaCl, 5 mM KCl; PBB: 137 mM NaCl, 2.7 mM KCl); HBB or PBB pH 7.4; stated not to bind; concentration tested not stated; immobilised aptamer
[2] = system: anti-AFT M1 aptamer (DNA, aptamer) ACTGCTAGAGATTTTCCACAT; test: TIRE/LSPR spectral shift; conditions: 3 mM MgCl2, Na+ and K+ (HBB: 120 mM NaCl, 5 mM KCl; PBB: 137 mM NaCl, 2.7 mM KCl); HBB or PBB pH 7.4; stated not to bind; concentration tested not stated; immobilised aptamer

- binding [1]: no
- binding [2]: no
Structure (SMILES): C[C@@H]1Cc2c(Cl)cc(C(=O)N[C@@H](Cc3ccccc3)C(=O)O)c(O)c2C(=O)O1
